This note sets out measurements from article PMC8400955 (Pharmaceuticals, 2021).

For orientation: fold induction means the signal under treatment as a multiple of the control signal. One may read the Papp A→B as how fast a substance crosses the layer from the apical side. In general, Papp B→A refers to the apparent permeability from the basolateral to the apical side of a cell layer. Broadly, the efflux ratio is a quotient of directional permeabilities that is used to spot active efflux.

Read-outs that look alike come from different tables or passages of the source.

For data set [1], the system named is CYP3A4. Kind of data set: CYP induction (enzyme activity) in cryopreserved human hepatocytes, CYP3A4. The conditions noted are these: 30 µM; for fold induction at 72 h, 30 µM: human, plated cryopreserved human hepatocytes. In kind it is in vitro ADME.
For data set [2], the system named is CYP1A2. Kind of data set: CYP induction (enzyme activity) in cryopreserved human hepatocytes, CYP1A2. Conditions: for Percent of Control / fold induction at 72 h, 30 µM: 30 µM; for fold induction at 72 h, 30 µM / fold induction at 72 h, 50 µM: human, plated cryopreserved human hepatocytes.
Experimental: (§1) The UPLC–MS/MS (SHIMADZU, LC-30AD) equipped with waters Xselect®HSS T3 2.5 μm (2.1 × 50 mm) was used to detect the marker metabolites in the enzyme activity assay. The fold-induction enzyme activity was determined using the ratio calculation (the calculation details are available in the Supplementary Materials).
(§2) CYP activity was expressed as pmol/min/million cells where pmol was defined as the amount of metabolite formed during the reaction. […] The fold-induction enzyme activity was determined by the ratio:
(§3) Fold of induction = CYP activity(induced) / CYP activity(vehicle)
(§4) % of positive control = (𝑪𝒀𝑷 𝒂𝒄𝒕𝒊𝒗𝒊𝒕𝒚(𝒊𝒏𝒅𝒖𝒄𝒆𝒅)ି 𝑪𝒀𝑷 𝒂𝒄𝒕𝒊𝒗𝒊𝒕𝒚(𝑫𝑴𝑺𝑶))(𝑪𝒀𝑷 𝒂𝒄𝒕𝒊𝒗𝒊𝒕𝒚(𝒑𝒐𝒔𝒊𝒕𝒊𝒗𝒆 𝒄𝒐𝒏𝒕𝒓𝒐𝒍)ି 𝑪𝒀𝑷 𝒂𝒄𝒕𝒊𝒗𝒊𝒕𝒚(𝑫𝑴𝑺𝑶))х 𝟏𝟎𝟎 Based on the enzyme activity, a minimum of 2-fold increase of a response compared to vehicle control and ≥ 20% of the positive control was considered as the cutoff for a positive signal in in vitro induction
The test system of data set [3] is CYP2B6. Kind of data set: CYP induction (enzyme activity) in cryopreserved human hepatocytes, CYP2B6. Conditions: for Percent of Control / fold induction at 72 h, 30 µM: 30 µM; for fold induction at 72 h, 30 µM / fold induction at 72 h, 1000 µM: human, plated cryopreserved human hepatocytes.
Experimental: as §1, §2, §3, §4
Data set [4] can be described thus: Bidirectional permeability across Caco-2 cell monolayers. In kind it is in vitro ADME. The conditions noted are these: human; for recovery at 120 min, 5 μM: Caco-2, Caco-2, 5 μM; for Papp A→B at 120 min, 5 μM / Papp B→A at 120 min, 5 μM / efflux ratio at 120 min, 5 μM: Caco-2, 5 μM. The procedure: The bidirectional permeability and absorption mechanism of ZB716 was evaluated across Caco-2 cell monolayers.
The apical-to-basolateral (A–B) and basolateral-to-apical (B–A) transport of ZB716 in HBSS (25 mM HEPES) with 1% BSA was measured across Caco-2 cell monolayers. […] All incubations were performed in triplicate, and the integrity of the cell monolayers was confirmed using the marker Lucifer yellow.
The slope, k, was determined by linear
using the following equation: […]
1.4 Intestinal Mucosal Permeation of ZB716
Papp= VAArea х timeх ሾdrugሿreceiverሾdrugሿinitial,donor

As for `CCOC(=O)c1ncn2c1CN(C)C(=O)c1cc(F)ccc1-2` [Flumazenil, flumazenil, reference compound], the “Percent of Control” value is 1.16% in data set [1] (donor one); 3.11% in data set [1] (donor three); 4.37% in data set [1] (donor two); −2.20% in data set [2] (donor one); −3.60% in data set [2] (donor three); 0.450% in data set [2] (donor two). Further, the “Percent of Control” value in data set [3] (donor one) is reported as 3.77%; in data set [3] (donor three), 5.23%; in data set [3] (donor two), −3.61%. In addition, the fold induction at 72 h, 30 µM in data set [1] (donor one) worked out at 1.06 ± 0.09; in data set [1] (donor three), 1.23 ± 0.09; in data set [1] (donor two) it was 1.39 ± 0.04; in data set [2] (donor one), 0.818 ± 0.032; in data set [2] (donor three) it was 0.807 ± 0.177; in data set [2] (donor two), 1.06 ± 0.11. In addition, the fold induction at 72 h, 30 µM in data set [3] (donor one) is 1.17 ± 0.04; in data set [3] (donor three) it was 1.28 ± 0.2; in data set [3] (donor two), 0.789 ± 0.07.
As to `COc1ccc2[nH]c([S+]([O-])Cc3ncc(C)c(OC)c3C)nc2c1` (stereo not shown) [Omeprazole, omeprazole, reference compound], the fold induction at 72 h, 50 µM worked out at 9.28 ± 0.223 in data set [2] (donor one), 6.37 ± 0.14 in data set [2] (donor three) and 15 ± 1.8 in data set [2] (donor two).
For the compound `Nc1cc(N2CCCCC2)nc(N)[n+]1[O-]` [Minoxidil, minoxidil, reference compound], the recovery at 120 min, 5 μM in data set [4] (read-out: Recovery A to B) stood at 91 ± 1.4%. Further, the recovery at 120 min, 5 μM in data set [4] (read-out: Recovery B to A) came out at 94.4 ± 48%. In data set [4], the apparent permeability from apical to basolateral (Papp A→B) at 120 min, 5 μM is 6.47 ± 0.22 ×10⁻⁶ cm/s; the Papp B→A at 120 min, 5 μM turned out to be 7.44 ± 0.47 ×10⁻⁶ cm/s; the efflux ratio at 120 min, 5 μM turned out to be 1.15 ± 0.09.
The corresponding values for `C[C@H]1O[C@@H](O[C@H]2[C@@H](O)C[C@H](O[C@H]3[C@@H](O)C[C@H](O[C@H]4CC[C@@]5(C)[C@H](CC[C@@H]6[C@@H]5C[C@@H](O)[C@]5(C)[C@@H](C7=CC(=O)OC7)CC[C@]65O)C4)O[C@@H]3C)O[C@@H]2C)C[C@H](O)[C@@H]1O` [Digoxin, digoxin, reference compound] are 92.4 ± 1%, 86 ± 6%, 0.687 ± 0.088 ×10⁻⁶ cm/s, 14.5 ± 1.68 ×10⁻⁶ cm/s and 21.2 ± 2.
For `CCC1(c2ccccc2)C(=O)NC(=O)NC1=O` [Phenobarbital, phenobarbital, reference compound], the results for the fold induction at 72 h, 1000 µM in data set [3] (donor one), in data set [3] (donor three) and in data set [3] (donor two) were 5.44 ± 0.13, 6.29 ± 0.9 and 6.86 ± 0.36, respectively.
